One experiment deals with cancer cell lines. As to the kind of experiment: Cell viability analysis (WST-1) on cancer cell lines. It is filed as cell-based, human. The note with it: drug 10 μM, 72 hours, WST-1; Table 3.
The test system of experiment [1] is HI650 (Lung Adenocarcinoma). As to the kind of experiment: Cell viability analysis, lung cancer HI650. The settings on record: Homo sapiens, NCI-H1650, 72 h. In kind it is cell-based, human.
Experiment [2] concerns A549 (Lung Adenocarcinoma). As to the kind of experiment: Cell viability analysis, lung cancer A549. In kind it is cell-based, human. The settings on record: Homo sapiens, A549, 72 h.
Experiment [3] concerns AGS (Gastric Adenocarcinoma). As to the kind of experiment: Cell viability analysis, gastric cancer AGS. It is filed as cell-based, human. The settings on record: Homo sapiens, 72 h.
Experiment [4] deals with MKN-45 (Gastric Adenocarcinoma). As to the kind of experiment: Cell viability analysis, gastric cancer MKN-45. In kind it is cell-based, human. The settings on record: Homo sapiens, MKN-45, 72 h.
In experiment [5] the test system is LoVo (Colorectal Adenocarcinoma). As to the kind of experiment: Cell viability analysis, colon cancer LoVo. The note with it: Homo sapiens, LoVo, 72 h. It is filed as cell-based, human.
For experiment [6], the system named is A375 (Amelanotic Melanoma). As to the kind of experiment: Cell viability analysis, skin cancer A375. In kind it is cell-based, human. The note with it: Homo sapiens, A-375, 72 h.
In experiment [7] the test system is HeLa (Cervix Adenocarcinoma). As to the kind of experiment: Cell viability analysis, cervical cancer HeLa. In kind it is cell-based, human. The note with it: Homo sapiens, HeLa, 72 h.
The subject of experiment [8] is PC3 (p53−) (Prostate Adenocarcinoma). As to the kind of experiment: Cell viability analysis, prostate cancer PC3. It is filed as cell-based, human. The note with it: Homo sapiens, 72 h.
Experiment [9] concerns TSGH-8301 (Urinary Bladder Carcinoma). As to the kind of experiment: Cell viability analysis, bladder cancer TSGH-8301. It is filed as cell-based, human. The settings on record: Homo sapiens, 72 h.
The subject of experiment [10] is MCF7 (Mammary Gland, Adenocarcinoma). As to the kind of experiment: Cell viability analysis, breast cancer MCF7. It is filed as cell-based, human. The note with it: Homo sapiens, MCF7, 72 h.
The subject of experiment [11] is HL-60 (Acute Promyelocytic Leukemia). As to the kind of experiment: Cell viability analysis, leukemia HL-60. In kind it is cell-based, human. The settings on record: Homo sapiens, HL-60, 72 h.
In experiment [12] the test system is HCT116 (p53+) (Colorectal Carcinoma). As to the kind of experiment: cells. The note with it: Homo sapiens, HCT-116, 72 h, read-out: cell viability (survival rate), HCT116.
The test system of experiment [13] is HepG2 (Hepatocellular Carcinoma). As to the kind of experiment: Cell viability analysis, hepatic cancer HepG2. It is filed as cell-based, human. The settings on record: Homo sapiens, HepG2, 72 h.
The mark [14] stands for this setting: read-out: cell viability (survival rate), H1650.
Where [15] appears, read: read-out: cell viability (survival rate), A549.
[16] abbreviates: read-out: cell viability (survival rate), AGS.
[17] abbreviates: read-out: cell viability (survival rate), MKN-45.
The mark [18] stands for this setting: read-out: cell viability (survival rate), LoVo.
[19] abbreviates: read-out: cell viability (survival rate), A375.
The mark [20] stands for this setting: read-out: cell viability (survival rate), HeLa.
Where [21] appears, read: read-out: cell viability (survival rate), PC3.
The mark [22] stands for this setting: read-out: cell viability (survival rate), TSGH.
Setting [23] is: read-out: cell viability (survival rate), MCF7.
The mark [24] stands for this setting: read-out: cell viability (survival rate), HL-60.
[25] abbreviates: read-out: cell viability (survival rate), LoVo, drug 10 μM, 72 hours, WST-1, OD450 nm.
[26] abbreviates: read-out: cell viability (survival rate), H1650, drug 10 μM, 72 hours, WST-1, OD450 nm.
Where [27] appears, read: read-out: cell viability (survival rate), A549, drug 10 μM, 72 hours, WST-1, OD450 nm.
Where [28] appears, read: read-out: cell viability (survival rate), AGS, drug 10 μM, 72 hours, WST-1, OD450 nm.
The mark [29] stands for this setting: read-out: cell viability (survival rate), MKN-45, drug 10 μM, 72 hours, WST-1, OD450 nm.
The mark [30] stands for this setting: read-out: cell viability (survival rate), HepG2, drug 10 μM, 72 hours, WST-1, OD450 nm.
Setting [31] is: read-out: cell viability (survival rate), A375, drug 10 μM, 72 hours, WST-1, OD450 nm.
[32] abbreviates: read-out: cell viability (survival rate), PC3, drug 10 μM, 72 hours, WST-1, OD450 nm.
The mark [33] stands for this setting: read-out: cell viability (survival rate), TSGH, drug 10 μM, 72 hours, WST-1, OD450 nm.
[34] abbreviates: read-out: cell viability (survival rate), MCF7, drug 10 μM, 72 hours, WST-1, OD450 nm.
Setting [35] is: read-out: cell viability (survival rate), HL-60, drug 10 μM, 72 hours, WST-1, OD450 nm.

The values below come from patent US10105357B2, “Indication of antibiotic drugs for preparation of cancer inhibition pharmaceutical composition” (LAUNX BIOMEDICAL CO., LTD., priority 2014, dated 2018).

What is called viability is a read-out of living cells in per cent, often relative to untreated cells.

Molecules are shown by their SMILES. Counter-ions that a name gives are not always drawn. Like-named read-outs stand apart in the source and are kept apart here.

`Cl.NCCc1ccc(O)c(O)c1` [Dopamine hydrochloride (Inotropin), Dopamine hydrochloride]: the “inhibition effect on different cancer cell lines” value in the experiment on cancer cell lines is reported as “significant inhibition effect”. Also, the viability at 10 µM in experiment [1] (setting [14]) stood at 76%; in experiment [2] (setting [15]), 102%; in [3] (setting [16]), 74.3%; in experiment [4] (setting [17]), 85%; in experiment [5] (setting [18]) it was 84.3%; in experiment [6] (setting [19]), 83%. Besides, the viability at 10 µM in experiment [7] (setting [20]) is 85.1%; in [8] (setting [21]) it was 115%; in experiment [9] (setting [22]), 57.7%; in experiment [10] (setting [23]), 148%; in experiment [11] (setting [24]) it was 91.5%; in experiment [12], 90.6%.

Turning to `CC(C)(O/N=C(\C(=O)N[C@@H]1C(=O)N2C(C(=O)[O-])=C(C[n+]3ccccc3)CS[C@H]12)c1csc(N)n1)C(=O)O` [Ceftazidime Pentahydrate], the “inhibition effect on different cancer cell lines” value in the experiment with cancer cell lines is reported as “significant inhibition effect”. Besides, the viability at 10 µM in experiment [1] (drug 10 μM, 72 hours, WST-1, OD450 nm, read-out: cell viability (survival rate), H1650) is 58.5%; in experiment [2] (drug 10 μM, 72 hours, WST-1, OD450 nm, read-out: cell viability (survival rate), A549), 26.7%; in experiment [3] (drug 10 μM, 72 hours, WST-1, OD450 nm, read-out: cell viability (survival rate), AGS), 53.5%; in [4] (drug 10 μM, 72 hours, WST-1, OD450 nm, read-out: cell viability (survival rate), MKN-45), 94.6%; in experiment [13] (drug 10 μM, 72 hours, WST-1, OD450 nm, read-out: cell viability (survival rate), HepG2), 93.6%; in experiment [5] (setting [25]), 72.5%. Further, the viability at 10 µM was found to be 87.7% in experiment [6] (drug 10 μM, 72 hours, WST-1, OD450 nm, read-out: cell viability (survival rate), A375); 70% in [7] (drug 10 μM, 72 hours, WST-1, OD450 nm, read-out: cell viability (survival rate), HeLa); 38.5% in experiment [8] (drug 10 μM, 72 hours, WST-1, OD450 nm, read-out: cell viability (survival rate), PC3); 78.7% in [9] (drug 10 μM, 72 hours, WST-1, OD450 nm, read-out: cell viability (survival rate), TSGH); 35.5% in experiment [10] (drug 10 μM, 72 hours, WST-1, OD450 nm, read-out: cell viability (survival rate), MCF7); 89.3% in [11] (drug 10 μM, 72 hours, WST-1, OD450 nm, read-out: cell viability (survival rate), HL-60). Moreover, in [12], the viability at 10 µM was determined as 89.5%.

Take `CCn1cc(C(=O)O)c(=O)c2cnc(N3CCCC3)nc21` [Piromidic Acid]: the “inhibition effect on different cancer cell lines” value in the experiment on cancer cell lines is “significant inhibition effect”. Besides, the viability at 10 µM in experiment [1] (setting [26]) amounted to 67.2%; in experiment [2] (setting [27]), 80.5%; in experiment [3] (setting [28]), 85.9%; in experiment [4] (setting [29]), 100%; in experiment [13] (setting [30]), 73.8%; in experiment [5] (setting [25]), 95.2%. For the same compound, the viability at 10 µM in experiment [6] (setting [31]) was 86.7%; in experiment [7] (read-out: cell viability (survival rate), HeLa, drug 10 μM, 72 hours, WST-1, OD450 nm) it was 95.5%; in experiment [8] (setting [32]), 107%; in [9] (setting [33]), 90.5%; in experiment [10] (setting [34]) it was 99.5%; in experiment [11] (setting [35]) it was 95.2%. Moreover, in [12], the viability at 10 µM was found to be 89.8%.

For the compound `CN(C)c1ccc(O)c2c1C[C@H]1C[C@H]3[C@H](N(C)C)C(O)=C(C(N)=O)C(=O)[C@@]3(O)C(O)=C1C2=O` [Minocycline HCl], in the experiment with cancer cell lines, the “inhibition effect on different cancer cell lines” value is “significant inhibition effect”. Further, the viability at 10 µM in experiment [1] (setting [26]) is 74%; in experiment [2] (setting [27]) it was 42.5%; in experiment [3] (setting [28]) it was 87.6%; in experiment [4] (setting [29]), 95%; in experiment [13] (setting [30]) it was 103%; in experiment [5] (setting [25]) it was 87.3%. Also, the viability at 10 µM stood at 81.6% in experiment [6] (setting [31]); 53.8% in [8] (setting [32]); 60.4% in experiment [9] (setting [33]); 49.9% in experiment [10] (setting [34]); 68.1% in [11] (setting [35]); 105% in [12].

Consider `O=C([O-])c1ccccc1O.[Na+]` [Sodium salicylate], for which, in the experiment with cancer cell lines, the “inhibition effect on different cancer cell lines” value was “significant inhibition effect”. In addition, the viability at 10 µM in [1] (setting [14]) worked out at 90.1%; in [2] (setting [15]), 107%; in experiment [3] (setting [16]), 82.1%; in [4] (setting [17]), 77.9%; in [13] (read-out: cell viability (survival rate), HepG2), 84.3%; in experiment [5] (setting [18]), 102%. Further, the viability at 10 µM in experiment [6] (setting [19]) stood at 74.9%; in experiment [7] (setting [20]), 94.4%; in experiment [8] (setting [21]), 87.9%; in [9] (setting [22]) it was 137%; in [10] (setting [23]), 89%; in [11] (setting [24]), 94.7%. In experiment [12], the viability at 10 µM was 73.5%.
